Where two headings read alike, the source gives them in different places.
Assays:
NCI-H82 cell = assay: Cell viability (Promega CellTiter-Glo) of NCI-H82 cell; type: cell-based; details: Homo sapiens
Experimental: Cell viability was detected using the Promega CellTiter-Glo kit, the kit reflected cell viability by directly measuring intracellular ATP content. Small cell lung cancer cell NCI-H82 (ATCC, No. HTB-175) was cultured in 10% fetal bovine serum-containing RPMI1640 medium (+P/S).
(§1) Cell viability was detected using the Promega CellTiter-Glo kit, the kit reflected cell viability by directly measuring intracellular ATP content.
(§2) Daoy cell was cultured in 10% fetal bovine serum-containing DMEM medium (+P/S), and NCI-H82 cell was cultured in 10% fetal bovine serum-containing RPMI1640 medium (+P/S).
Cell viability was detected using the Promega CellTiter-Glo kit, the kit reflected cell viability by directly measuring intracellular ATP content. In the experiment, the IC50 value of different compounds on different tumor cell lines was detected to determine cell lines that were sensitive or insensitive to different compounds.
Tumor cells were cultured in 10% FBS-containing medium (+p/s), and incubated for 3 h or the following day, then the gradient diluted compound was added. After 3 days of culture, the relevant IC50 (50% inhibiting concentration) was measured. The name, source and culture conditions of each tumor cell line were as follows:
Cell line NCI-H82 (ATCC, No. HTB-175) was cultured in 10% fetal bovine serum-containing RPMI1640 medium (+P/S).

[1] = Stability in human liver microsome; type: in vitro ADME; details: liver microsomes, pH 7.4, 1.5 μM drug solution, NADPH, 37° C., read-out: Human T1/2
Experimental: Vortexing for 10 min, the sample was centrifuged with 5594×g for 15 min in centrifuger (Thermo Multifuge×3R). • 10) taking 50 μL supernatant from the centrifuged sample, transferred to 96 well sample plate contain 50 μL water, mixed, and the sample was analyzed using LC-MS/MS.

Daoy cell = assay: Cell viability (CellTiter-Glo) of Daoy cell with or without CsA; type: cell-based; details: Homo sapiens
Experimental: as §1, §2

[2] = tested on: mitochondria permeability transition pore; assay: Mitochondria membrane potential difference by TMRM in NCI-H82 cell; type: cell-based, human; details: H2O2 +, CsA none
[3] = tested on: mitochondria permeability transition pore; assay: Mitochondria membrane potential difference by TMRM in Daoy cell; type: cell-based, human; details: H2O2 +, CsA none
[4] = NCI-H82 cell, Table 1, read-out: IC50
[5] = NCI-H82, read-out: IC50 NCI-H82 cell without CsA
[6] = read-out: IC50 Daoy cell with CsA
[7] = read-out: IC50 Daoy cell without CsA

SMILES	IC50 (NCI-H82 cell; [4]) [nM]	half-life at 1 µM [1] [h]	IC50 (NCI-H82 cell; [5]) [nM]	IC50 (Daoy cell; [6]) [nM]	IC50 (Daoy cell; [7]) [nM]	Relative TMRM signal intensity, mean value [2] [%]	Relative TMRM signal intensity, mean value [3] [%]
O=C1c2cc(OC(F)(F)F)ccc2CCC1[n+]1ccc2c(ccn2Cc2ccccc2)c1 (centres unmarked) [AB27126]	150	20.8	150	280	1950	–	–
O=C1c2cc(Cl)ccc2CCC1[n+]1ccc2c(c1)CCC(c1ccccc1)N2 (centres unmarked) [AB27130]	770	5.96	770	310	5500	–	–
O=C1c2cc(C(F)(F)F)ccc2CCC1[n+]1ccc2c(c1)CCC(c1ccccc1)N2 (centres unmarked) [AB27131]	440	6.81	440	710	4750	–	–
Cc1cn(Cc2ccccc2)c2cc[n+](C3CCc4ccc(Cl)cc4C3=O)cc12 (centres unmarked) [AB27142]	60	12.4	–	–	–	–	–
O=C1c2cc(OC(F)(F)F)ccc2CCC1[n+]1ccc(NCc2ccccc2)cc1 (centres unmarked) [AB27156]	260	17.5	260	240	1050	–	–
OO [Compound H2O2]	–	–	–	–	–	119	82

Now from value to compound, other results behind:

IC50 (NCI-H82 cell; [4]) [nM]	half-life at 1 µM [1] [h]	IC50 (NCI-H82 cell; [5]) [nM]	SMILES	IC50 (Daoy cell; [6]) [nM]	IC50 (Daoy cell; [7]) [nM]	Relative TMRM signal intensity, mean value [2] [%]	Relative TMRM signal intensity, mean value [3] [%]
30	1.77	–	O=C1c2cc(Cl)ccc2CCC1[n+]1ccc2c(ccn2Cc2ccccc2)c1 (centres unmarked) [AB27124]	–	–	–	–
110	14.2	110	O=C1c2cc(C(F)(F)F)ccc2CCC1[n+]1ccc2c(ccn2Cc2ccccc2)c1 (centres unmarked) [AB27125]	190	1460	–	–
10	4.85	10	CC(c1ccccc1)[n+]1ccc2c(ccn2C2CCc3ccc(Cl)cc3C2=O)c1 (centres unmarked) [AB27141]	28	> 1000	–	–
160	75.2	160	O=C1c2cc(C(F)(F)F)ccc2CCC1[n+]1ccc(NCc2ccccc2)cc1 (centres unmarked) [AB27144]	210	1020	–	–
